≈ marks a conversion by molar mass, not a printed value. Read-outs that look alike come from different tables or passages of the source. Marks after values point to notes of the source that are not given here. Where no end group is shown, it is not given here.
Assays:
F. nucleatum ATCC 25586 [1] = system: F. nucleatum ATCC 25586
Text: (§1) The bacterial strains; Fusobacterium nucleatum ATCC 25586, Streptococcus mutans Ingbritt, Staphylococcus aureus (MSSA) ATCC 29213; Staphylococcus aureus (MRSA) ATCC 43300; Enterococcus faecalis ATCC 29212; Enterobacter aerogenes ATCC 13048; Pseudomonas aeruginosa strain PAO1-LAC, ATCC 47085; Klebsiella pneumoniae ATCC 13883; Acinetobacter baumannii strain 2208, ATCC 19606; Escherichia coli ATCC 25922 lyophilised or glycerol stocks were obtained from the culture collection of the Oral Health Cooperative Research Centre, The Melbourne Dental School, University of Melbourne, Australia. These strains were selected for this study as they are widely used in antimicrobial studies and are considered to be important pathogens and major targets for antibiotic resistant studies. Bacteria were grown aerobically and maintained by passage at ambient temperature (E. coli, K. pneumoniae, A. baumannii and S. aureus strains) or at 37°C (P. aeruginosa, E. faecalis and E. aerogenes) on horse blood agar (10% v/v defibrinated horse blood, 4.4% w/v Oxoid Blood Agar Base No. 2). S. mutans and F. nucleatum were grown anaerobically (MK3 anaerobic workstation, Don Whitley Scientific Limited, England) and maintained by passage at 37°C on Todd Hewitt agar (3.6% w/v Oxoid Todd-Hewitt Broth, 1.5% w/v sucrose, 1.5% w/v BactoTM Agar, 0.8% w/v Oxoid Yeast Extract) or horse blood agar, respectively. For the antimicrobial peptide assays a 20 mL starter culture was produced by taking single colonies from blood or Todd Hewitt agar plates, respectively, to inoculate either: Luria Broth (LB; 1% w/v BactoTM Tryptone, 1% w/v NaCl, 0.5% w/v Oxoid Yeast Extract, pH 7.5, Thermo Scientific Pty, Ltd, Sydney, Australia) for bacteria; E. coli, K. pneumoniae, P. aeruginosa, A. baumannii, E. faecalis, E. aerogenes and S. aureus which were grown aerobically at 37°C, or Todd Hewitt broth (3.6% w/v Oxoid Todd-Hewitt Broth, 1.5% w/v sucrose, 0.8% w/v Oxoid Yeast 9 Extract) for S. mutans, or Brain Heart Infusion broth (BHI; 3.7% w/v Oxoid BHI, 0.05% w/v L-cysteine) for F. nucleatum which were both grown anaerobically at 37°C. After overnight incubation, 0.5–2.0 mL of the starter culture was used to inoculate the appropriate fresh broth (200 mL) and growth monitored at 650 nm using a spectrophotometer (model 275E; Perkin-Elmer, Sydney, Australia) with culture purity checked by microscopic examination and culture. Bacteria were harvested during late exponential growth phase and viability and bacteria/mL determined using a BacLight viability kit (Invitrogen, Sydney, Australia) and a Quanta SC-MPL flow cytometer (Beckman coulter Pty, Ltd, Sydney, Australia).
(§2) Antibacterial assays were undertaken to determinate the minimum inhibitory concentration (MIC), minimum bactericidal concentration (MBC) and minimum membrane disruptive concentration (MDC) of each of the antimicrobial peptides (AMP) and AMP analogues (S1 Table). For each bacterim a stock solution (2.5 × 10^6 cells/mL) in the respective media was made and an aliquot incubated with AMPs within 15 minutes from viable cell count and stock preparation. All AMPs were dissolved in DMSO and a 500 μM stock solution prepared by adding the respective media and serial dilutions (250–0.244 μM) of the AMP in media (100 μL/well) made just prior addition of bacteria. […] One hundred microliter aliquots of the bacterial stock solution (2.5 × 10^5 cells/well) were added to the AMP serial dilutions and incubated at 37°C for 90 min. Assay preparation and incubations were conducted in aerobic or anaerobic conditions dependent on the bacteria. Bacteria were also incubated in the absence of AMP to serve as a growth control for the assay. After the 90 minute incubation period the antimicrobial activity (MIC, MBC and MDC) was determined as follows;
(§3) For determination of MBC, the CLSI protocol was followed, with the modifications being that due to the rapid action of the AMPs the assay incubation time was shortened from 16–20 hours to 90 minutes.

S. mutans Ingbritt [2] = system: S. mutans Ingbritt
Text: as §1, §2, §3

F. nucleatum ATCC 25586 [3] = system: F. nucleatum ATCC 25586; remark: listed apart in the source
Text: as §1, §2
(§4) For MIC the CLSI broth microdilution assay was followed as we have previously described.

S. mutans Ingbritt [4] = system: S. mutans Ingbritt; remark: listed apart in the source
Text: as §1, §2, §4

sheep red blood cells = assay: Hemolysis assay; type: cell-based
Protocol: Fresh sheep red blood cells in Alsever’s solution (RBCs, Equicell, Victoria, Australia) were diluted 1 in 20 in PBS (pH 7.4), pelleted by centrifugation, and washed three times in PBS (1000 g, 10 min). The RBCs were counted using a cell counter (Coulter Particle Counter Z series, Beckman Coulter) and diluted to a final concentration of 2 × 10^7 cells/mL. […] Following incubation, the RBCs were pelleted centrifuged (1000 g, 10 min) and the amount of haemoglobin in 100 μL aliquots determined by measuring the absorbance at 405 nm using a microplate reader (PerkinElmer 1420 Multilabel Counter VICTOR3). Positive and negative controls for hemolysis were taken as RBC lysed with 0.5% Triton X-100 (1:1 v/v) and RBC suspension in PBS, respectively. The percentage of hemolysis was calculated using the following formula: % Hemolysis = [(A405 test sample—A405 negative control) / (A405 positive control—A405 negative control)] × 100
The percentage hemolysis was plotted against peptide concentration and linear regression analysis was used to determine the hemolytic concentration needed to lyse 50% (HC50) of RBCs.

[5] = system: HEK-293 (ATCC CRL-1573) cells; assay: Inhibition of cell proliferation assay (MTS); type: cell-based
Protocol: After 28 h, 20 μL of 3-(4,5-dimethylthiazol-2-yl)-5-(3-carboxymethoxyphenyl)-2-(4-sulfophenyl)-2H-tetrazolium (MTS) solution (CellTiter 96 AQueous Non-Radioactive Cell Proliferation Assay kit, Promega) were added to each well and the plates were incubated for a further 1–2 h at 37°C, 5% CO2 incubator. Cell proliferation was determined by measuring absorbance at 490 nm using a microplate reader (PerkinElmer 1420 Multilabel Counter VICTOR3). Positive and negative controls for inhibition were taken as HEK-293 cells incubated with mytomycin C (5 μg/mL, Sigma Pty Ltd) and HEK-293 cells incubated in media alone, respectively. The percentage of inhibition was calculated using the following formula: % Inhibition = [(A490 test sample—A490 negative control) / (A490 positive control—A490 negative control)] × 100
The percentage of inhibition was plotted against peptide concentration and linear regression analysis was used to determine the AMP concentration needed to inhibit 50% (IC50) of the HEK-293 cells.

E. coli ATCC 25922 [6] = conditions: E. coli ATCC 25922; 90 min incubation; average of 3 assays ± SD
Text: as §1, §2, §3

K. pneumoniae ATCC 13883 [7] = conditions: K. pneumoniae ATCC 13883; 90 min incubation; average of 3 assays ± SD
Text: as §1, §2, §3

[8] = system: A. baumannii strain 2208, ATCC 19606; conditions: A. baumannii strain 2208, ATCC 19606; 90 min incubation; average of 3 assays ± SD
Text: as §1, §2, §3

E. faecalis ATCC 29212 [9] = conditions: E. faecalis ATCC 29212; 90 min incubation; average of 3 assays ± SD
Text: as §1, §2, §3

[10] = system: S. aureus (MRSA) ATCC 43300; conditions: S. aureus (MRSA) ATCC 43300; 90 min incubation; average of 3 assays ± SD
Text: as §1, §2, §3

[11] = system: P. aeruginosa strain PAO1-LAC, ATCC 47085; conditions: P. aeruginosa PAO1-LAC, ATCC 47085; 90 min incubation; average of 3 assays ± SD
Text: as §1, §2, §3

E. aerogenes ATCC 13048 [12] = conditions: E. aerogenes ATCC 13048; 90 min incubation; average of 3 assays ± SD
Text: as §1, §2, §3

[13] = system: S. aureus (MSSA) ATCC 29213; conditions: S. aureus (MSSA) ATCC 29213; 90 min incubation; average of 3 assays ± SD
Text: as §1, §2, §3

E. coli ATCC 25922 [14] = conditions: E. coli ATCC 25922; 90 min incubation; average of 3 assays ± SD; remark: listed apart in the source
Text: as §1, §2, §4

K. pneumoniae ATCC 13883 [15] = conditions: K. pneumoniae ATCC 13883; 90 min incubation; average of 3 assays ± SD; remark: listed apart in the source
Text: as §1, §2, §4

[16] = system: A. baumannii strain 2208, ATCC 19606; conditions: A. baumannii strain 2208, ATCC 19606; 90 min incubation; average of 3 assays ± SD; remark: listed apart in the source
Text: as §1, §2, §4

E. faecalis ATCC 29212 [17] = conditions: E. faecalis ATCC 29212; 90 min incubation; average of 3 assays ± SD; remark: listed apart in the source
Text: as §1, §2, §4

[18] = system: S. aureus (MRSA) ATCC 43300; conditions: S. aureus (MRSA) ATCC 43300; 90 min incubation; average of 3 assays ± SD; remark: listed apart in the source
Text: as §1, §2, §4

[19] = system: P. aeruginosa strain PAO1-LAC, ATCC 47085; conditions: P. aeruginosa PAO1-LAC, ATCC 47085; 90 min incubation; average of 3 assays ± SD; remark: listed apart in the source
Text: as §1, §2, §4

E. aerogenes ATCC 13048 [20] = conditions: E. aerogenes ATCC 13048; 90 min incubation; average of 3 assays ± SD; remark: listed apart in the source
Text: as §1, §2, §4

[21] = system: S. aureus (MSSA) ATCC 29213; conditions: S. aureus (MSSA) ATCC 29213; 90 min incubation; average of 3 assays ± SD; remark: listed apart in the source
Text: as §1, §2, §4

## CC[C@H](C)[C@H](NC(=O)CN)C(=O)NCC(=O)N[C@@H](C)C(=O)N[C@H](C(=O)N[C@@H](CC(C)C)C(=O)N[C@@H](CCCCN)C(=O)N[C@H](C(=O)N[C@@H](CC(C)C)C(=O)N[C@H](C(=O)N[C@H](C(=O)NCC(=O)N[C@@H](CC(C)C)C(=O)N1CCC[C@H]1C(=O)N[C@@H](C)C(=O)N[C@@H](CC(C)C)C(=O)N[C@H](C(=O)N[C@@H](CO)C(=O)N[C@@H](Cc1c[nH]c2ccccc12)C(=O)N[C@H](C(=O)N[C@@H](CCCCN)C(=O)N[C@@H](CCCNC(=N)N)C(=O)N[C@@H](CCCCN)C(=O)N[C@@H](CCCNC(=N)N)C(=O)N[C@@H](CCC(N)=O)C(=O)N[C@@H](CCC(N)=O)C(N)=O)[C@@H](C)CC)[C@@H](C)CC)[C@@H](C)O)[C@@H](C)O)C(C)C)C(C)C [Melittin]
F. nucleatum ATCC 25586 [1]; F. nucleatum ATCC 25586, 90 min peptide/bacteria incubation, CFU on agar, ≥ 99.9% reduction, average of 3 assays ± SD
  MBC: 3.8 ± 0.4 µM (≈ 10.8 µg/mL)
S. mutans Ingbritt [2]; S. mutans Ingbritt, 90 min peptide/bacteria incubation, CFU on agar, ≥ 99.9% reduction, average of 3 assays ± SD
  MBC: 4.2 ± 2.4 µM (≈ 12 µg/mL)
F. nucleatum ATCC 25586 [3]; F. nucleatum ATCC 25586, 2.5 × 10^5 cells/well, 90 min peptide/bacteria incubation at 37°C, then growth at OD650, average of 3 assays ± SD
  MIC: 4.4 ± 0.3 µM (≈ 12.5 µg/mL)
F. nucleatum ATCC 25586 [3]; F. nucleatum, average of MIC and MBC
  average MIC/MBC value: 4.0 µM
S. mutans Ingbritt [4]; S. mutans Ingbritt, 90 min peptide/bacteria incubation at 37°C, then growth at OD650, average of 3 assays ± SD
  MIC: 6.1 ± 0.9 µM (≈ 17.4 µg/mL)

## GIGKFLHAAKKFAKAFVAEIMNS-NH2 [Ala-Magainin]
Sheep red blood cells; HC50/MDC50 (F. nucleatum), given as x : 1
  Therapeutic Index (hemolysis): 24 : 1
Sheep red blood cells; pH 7.4
  Hemolysis (HC50): 9.6 ± 0.9 µM
F. nucleatum ATCC 25586 [1]; ATCC 25586
  MBC: 0.4±0.1^c μM
S. mutans Ingbritt [2]; Ingbritt
  MBC: 3.4±0.5^c μM
F. nucleatum ATCC 25586 [3]; ATCC 25586, 24 h
  MIC: 0.6±0.1^c μM
S. mutans Ingbritt [4]; Ingbritt, 24 h
  MIC: 7.1±0.7^c μM
[5]; HEK-293 cells 5×10^3, EMEM + 10% FBS, 28 h, MTS, A490, linear regression, maximum peptide concentration = 1000 µM
  IC50: 5.6 ± 1.4 µM
[5]; IC50/MDC50 (F. nucleatum), given as x : 1
  Therapeutic Index (proliferation): 14.0 : 1

## GLLSVLGSVAKHVLPHVVPVIAEHL-NH2 [Caerin 1.1]
E. coli ATCC 25922 [6]
  MBC: 15.6 ± 0.4 µM
K. pneumoniae ATCC 13883 [7]
  MBC: 20.0 ± 7.1 µM
[8]
  MBC: 3.0 ± 1.0 µM
E. faecalis ATCC 29212 [9]
  MBC: 17.5 ± 10.6 µM
[10]
  MBC: 13.9 ± 2.4 µM
[11]
  MBC: 51.4 ± 27.1 µM
E. aerogenes ATCC 13048 [12]
  MBC: 51.1 ± 6.3 µM
[13]
  MBC: 9.9 ± 2.3 µM
E. coli ATCC 25922 [14]
  MIC: 8.45±0.2^e μM
K. pneumoniae ATCC 13883 [15]
  MIC: 14.6 ± 5.1 µM
[16]
  MIC: 3.1 ± 0.4 µM
E. faecalis ATCC 29212 [17]
  MIC: 27.1 ± 15.0 µM
[18]
  MIC: 4.9±0.4^e μM
[19]
  MIC: 39.3 ± 21.4 µM
E. aerogenes ATCC 13048 [20]
  MIC: 40.0 ± 8.2 µM
[21]
  MIC: 5.5±0.2^e μM
